Results on three compounds are retold here after patent US20090123474A1, “COMBINATION OF ANGIOPOIETIN-2 ANTAGONIST AND OF VEGF-A, KDR AND/OR FLTL ANTAGONIST FOR TREATING CANCER” (ASTRAZENECA AB, priority 2005, published 2009).

Common to all, as to assay type: in vivo
Assay [1] concerns A431 human tumour xenografts. Briefly: A431 xenograft efficacy study (Study A). To be noted: 3.19.3 10 mg/kg 2×wk i.p., VTKI 3 mg/kg/day p.o. On the procedure: (§1) The anti-tumor activity of monoclonal antibody 3.19.3 in combination with the VTKI 4-(4-fluoro-2-methylindol-5-yloxy)-6-methoxy-7-(3-piperidinopropoxy)quinazoline was evaluated in a xenograft model of human skin epidermoid carcinoma (Study A) and in a model of colorectal cancer (Study B) by using the A431 and Colo205 cell lines respectively.
(§2) A431 and Colo205 cells were cultured in flasks as routine until the cells reached sub-confluence. Immunodeficient 6-8 week old female mice (Ncr/nu/nu) were used. The cells were harvested and suspended in Matrigel. A cell suspension containing 1 to 5×10^6 cells was injected subcutaneously into the flank of the mice. The mice were randomized into different groups, each containing 10-15 mice. When the tumour volume reached 200 mm^3, the mice were randomized in each groups and the treatments were initiated. mAb 3.19.3 10 mg/kg in saline was injected intraperitoneally, twice per week for 2 weeks. 4-(4-fluoro-2-methylindol-5-yloxy)-6-methoxy-7-(3-piperidinopropoxy)quinazoline was treated peroral daily at doses ranging from 1.5 to 6 mg/kg in water containing 1% Tween80. The dimensions of each tumor were measured twice per week. The volume of the tumor was calculated as: Volume=Length×(Width)^2×0.5 (cm^3).

Assay [2] concerns human Colo205 colon tumour xenografts. Briefly: Colo205 xenograft efficacy study (Study B). The settings on record: 3.19.3 10 mg/kg 2×wk i.p., VTKI 6 mg/kg/day p.o. The method, then: as §1, §2
In assay [3] the test system is human HT29 colon tumour xenografts. Description: HT29 xenograft efficacy study. To be noted: AZD2171 1.5 mg/kg/day p.o. d 0-27, 3.19.3 10 mg/kg i.p. day 0, 3, 7, 10, 14, 17, 21 and 24. The method, then:
The efficacy of mAb 3.19.3 in combination with AZD2171 was evaluated in human HT29 xenografts. Briefly, 5×10^6 HT29 tumour cells in 0.1 ml of serum free Roswell Park Memorial Institute (RPMI)-1640 medium were injected subcutaneously into the flanks of 60 athymic (nu/nu genotype) mice. When tumours reached a volume of 200 to 400 mm^3 (9-10 days), mice were randomized into groups (8 per group) and treatment started (day 0).
The control group (Group 1) received a daily oral (p.o.) administration of vehicle only for 28 consecutive days (day 0-27). Group 2 treatment consisted of a daily p.o. administration of AZD2171 alone at 1.5 mg/kg/administration for 28 consecutive days (day 0-27). AZD2171 was prepared as a suspension in 1% polysorbate 80 (i.e. a 1% (v/v) solution of polyoxyethylene (20) sorbitan mono-oleate in deionised water). […]
Tumour volumes (mm^3) were assessed at least twice weekly by bilateral Vernier caliper measurement and, taking length to be the longest diameter across the tumor and width the corresponding perpendicular, calculated using the formula (π/6)×(length×width)×√ (length×width). Growth inhibition from the start of treatment was assessed by comparison of the differences in tumor volume between control and treated groups. […] For all mice, the tumours were excised and weights recorded upon termination of the study.

Assay [4] relates to human LoVo colon tumour xenografts. To be noted: 3.19.3 10 mg/kg 2×wk i.p., Zactima 50 mg/kg/day p.o. On the procedure:
The anti-tumor activity of monoclonal antibody 3.19.3 was evaluated in the LoVo xenograft model of colorectal cancer. Briefly, LoVo cells were cultured in flasks as routine until the cells reached sub-confluence. Immunodeficient 8 week old male NCr nude mice were used. Cell suspensions containing 3×10^6 cells were injected subcutaneously into the right flank of the mice, and after the tumour volume reached 200 mm^3, the mice were randomized in groups and the treatments were initiated. mAb 3.19.3 10 mg/kg in saline was injected intraperitoneally, twice per week for 2 weeks. Zactima™ was treated peroral daily at doses ranging from 25 to 50 mg/kg in water containing 1% Tween80. The dimensions of each tumor were measured twice per week. The volume of the tumor was calculated as: Volume=Length×(Width)^2×0.5 (cm^3).

By % inhibition is commonly meant the drop in the measured response relative to a control, in per cent. Regarding `COc1cc2c(Oc3ccc4[nH]c(C)cc4c3F)ncnc2cc1OCCCN1CCCCC1` [4-(4-fluoro-2-methylindol-5-yloxy)-6-methoxy-7-(3-piperidinopropoxy)quinazoline, reference compound], the “% tumor growth inhibition” value in assay [1] was found to be 69%. Further, the “% inhibition” value in assay [2] was found to be 57%. For the compound `COc1cc2c(Oc3ccc4[nH]c(C)cc4c3F)ncnc2cc1OCCCN1CCCC1` [AZD2171, reference compound], the “Inhibition of Control Tumour Growth Day 28” value in assay [3] turned out to be 55%.

`COc1cc2c(Nc3ccc(Br)cc3F)ncnc2cc1OCC1CCN(C)CC1` [Zactima™, reference compound] returned a tumour inhibition in assay [4] of 46%.
